The numbers were not newly measured in patent US8674081B2, “Methods and compositions to elicit multivalent immune responses against dominant and subdominant epitopes, expressed on cancer cells and tumor stroma” (Mankind Corporation, priority 2005, dated 2014), which cites them from elsewhere.

For series [1] the following is noted: stated as 'has been shown'.
The test system of another series is human PBMC. The following applies: stated as 'has been shown'.
The test system of a further series is MHC class I. The following applies: stated as 'has been shown'.

As for “GLPSIPVHPI (listed as Homo sapiens) [PSMA288-297]”, the “CTL / anti-tumor immune response, in vivo immunization in mice” value (from here on “CTL / anti-tumor immune response … in mice”) in series [1] is recorded as “significant CTL responses”. Also, in the series on human PBMC, the “CTL / anti-tumor immune response, in vitro immunization of human PBMC” value (shortened to “CTL / anti-tumor immune response … of human PBMC”) is “significant CTL responses”.
As for GLPSIPVHPV [PSMA288-297 I297V], the “CTL / anti-tumor immune response … in mice” value in series [1] is recorded as “significant CTL responses”. Moreover, the “CTL / anti-tumor immune response … of human PBMC” value in the series with human PBMC is on record as “significant CTL responses”. Besides, the “MHC class I binding relative to native epitope” value in the series on MHC class I is reported as “elevated”.
SLLQHLIGL [PRAME425-433]: in series [1], the “CTL / anti-tumor immune response … in mice” value was “strong anti-tumor immune responses”. The “CTL / anti-tumor immune response … of human PBMC” value with human PBMC is given as “strong anti-tumor immune responses”.
